According to patent EP3995133A1, “STABLE NANOEMULSIONS” (Fundación Tecnalia Research & Innovation, priority 2020, dated 2022):
Where two headings read alike, the source gives them in different places.

What was measured:
[1] = system: 3T3; details: 3T3, 24 hours
Protocol: (§1) Potential apoptosis and necrosis induction was studied in the cell lines using Annexin V conjugated with Alexa Fluor 488 (Molecular Probes) and Propidium Iodide (PI, Sigma) fluorochromes by Flow Cytometry, to measure early apoptotic event and necrosis respectively, after exposure to different concentrations of sulforaphane or sulforaphane-loaded nanoemulsion suspensions. HaCaT, and 3T3 cells were seeded in 24 well plates at a density of 100.000 cells/well. 24 hours later cells were exposed to test items for further 24 hours. After the exposure, 5 µL of the annexin V conjugates were added to each 100 µL of cell suspension replicate (minimum of 10.000 cell/100µL) and incubated at room temperature for 15 minutes. After incubation, cells were washed and submitted to flow cytometry acquisition. Immediately before acquisition, the stained cells were contrasted with PI (5 µg/ml) to detect necrotic cells and analysed by Cytomics FC500 Flow Cytometer. Three independent experiments and at least three replicates for each experimental point were carried out. Each experiment included a negative control (untreated cells). […]

[2] = system: HaCaT; details: 24 hours
Protocol: as §1

[3] = 6.25 mM sulforaphane (6.26 printed for the nanoemulsion)

C[S+]([O-])CCCCN=C=S (racemic) [Sulforaphane, D,L-Sulforaphane] was tested, and the “AnnexinV (percentage of positive cells)” value ([1]; 3.125 mM sulforaphane) was 7.73±1.23%, the “AnnexinV+PI (percentage of positive cells)” value ([1]; 3.125 mM sulforaphane) was 1.93±0.15% and the “C neg (percentage of cells)” value ([1]; 3.125 mM sulforaphane) was 86.23±1.77%. The “PI (percentage of positive cells)” value ([1]; 3.125 mM sulforaphane) was 4.10±2.38%, the “AnnexinV (percentage of positive cells)” value [1, 3] was 7.83±1.50% and the “AnnexinV+PI (percentage of positive cells)” value [1, 3] was 2.03±0.46%. The “C neg (percentage of cells)” value [1, 3] was 86.97±1.68%, the “PI (percentage of positive cells)” value [1, 3] was 3.17±0.76% and the “AnnexinV (percentage of positive cells)” value ([1]; 12.5 mM sulforaphane) was 11.07±1.59%. The “AnnexinV+PI (percentage of positive cells)” value ([1]; 12.5 mM sulforaphane) was 3.07±0.67%, the “C neg (percentage of cells)” value ([1]; 12.5 mM sulforaphane) was 81.57±3.40% and the “PI (percentage of positive cells)” value ([1]; 12.5 mM sulforaphane) was 4.30±0.54%. The “AnnexinV (percentage of positive cells)” value ([2]; 3.125 mM sulforaphane) was 5.90±0.98%, the “AnnexinV+PI (percentage of positive cells)” value ([2]; 3.125 mM sulforaphane) was 1.27±0.06% and the “C neg (percentage of cells)” value ([2]; 3.125 mM sulforaphane) was 90.97±1.77%. The “PI (percentage of positive cells)” value ([2]; 3.125 mM sulforaphane) was 1.87±0.81%, the “AnnexinV (percentage of positive cells)” value [2, 3] was 7.33±1.82% and the “AnnexinV+PI (percentage of positive cells)” value [2, 3] was 1.83±0.15%. For the same compound, the “C neg (percentage of cells)” value [2, 3] was 88.50±1.65%, the “PI (percentage of positive cells)” value [2, 3] was 2.33±0.61% and the “AnnexinV (percentage of positive cells)” value ([2]; 12.5 mM sulforaphane) was 7.17±1.74%. The “AnnexinV+PI (percentage of positive cells)” value ([2]; 12.5 mM sulforaphane) was 2.03±0.35%, the “C neg (percentage of cells)” value ([2]; 12.5 mM sulforaphane) was 88.10±3.40% and the “PI (percentage of positive cells)” value ([2]; 12.5 mM sulforaphane) was 2.70±0.30%.
